These results are taken from patent US11401246B2, “Triazole glycolate oxidase inhibitors” (CANTERO THERAPEUTICS, INC., priority 2018, dated 2022).

Structures can show the parent of a compound that is named as a salt.

One assay has as its target T1, human glycolate oxidase (hGO) (Homo sapiens, UniProt Q9UJM8).
T1 construct: His-tag (6 histidines, pET-15b) (N); made in house; host or cells: E. coli BL21 (DE3)
T1 sequence (Q9UJM8 1-370): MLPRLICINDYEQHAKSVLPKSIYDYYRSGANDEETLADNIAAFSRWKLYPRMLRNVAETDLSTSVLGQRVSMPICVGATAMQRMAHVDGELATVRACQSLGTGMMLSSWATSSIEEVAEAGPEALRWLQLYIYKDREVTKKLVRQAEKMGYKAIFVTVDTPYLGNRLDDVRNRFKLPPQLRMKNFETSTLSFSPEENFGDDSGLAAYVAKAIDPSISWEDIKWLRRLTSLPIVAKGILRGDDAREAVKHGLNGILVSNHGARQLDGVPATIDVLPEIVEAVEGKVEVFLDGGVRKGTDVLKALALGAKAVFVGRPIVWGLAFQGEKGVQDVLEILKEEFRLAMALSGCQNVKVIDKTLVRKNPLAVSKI
Briefly: In vitro inhibition of human glycolate oxidase (enzymatic assay, HRP-coupled Trinder reaction).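 As to % Inhibition: values are IC50 potency bins despite the % Inhibition label.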
Conditions: not given
In kind it is biochemical. An excerpt:
The catalytic reactions used for assaying glycolate oxidase activity in the presence of compounds according to the present disclosure are outlined in FIG. 2. Glycolate oxidase (GO)-catalyzed conversion of glycolate to glyoxylate (top reaction), with the concomitant reduction of the cofactor flavin mononucleotide (FMN), uses molecular oxygen (O2) for recovering its oxidative state, releasing hydrogen peroxide (H2O2). The Trinder reaction (bottom reaction), in which horseradish peroxidase (HRP) uses hydrogen peroxide, 4-aminoantipyrine and a phenol derivative (sulphonated DCIP) to generate a quinoneimine dye that is spectrophotometrically measured.
Human glycolate oxidase (hGO) expression. BL21 (DE3) E. coli transformed with recombinant pET-15b expression vector with the N-terminal His-tag human Hao1 cDNA was grown in LB medium in the presence of 0.1 mg/ml ampicillin. For purification of recombinant human glycolate oxidase (hGO) expressed in BL21 E. coli, bacteria pellets were thawed and re-suspended in 2 ml lysis buffer (50 mM NaH2PO4, 300 mM NaCl, 10 mM imidazole, 50 μM FMN, pH 7.5), and then treated for 30 minutes with 1 mM PMSF for protease inhibition, 0.1% Triton X-100 and 0.2 mg/ml lysozyme to break cellular membranes. After sonication, cells were centrifuged and the supernatant containing the total cellular extract (pre-column fraction) was loaded into a Ni-NTA agarose column and incubated for 30 minutes at 4° C. to allow binding of the 6 histidine tail of recombinant GO protein to the nickel ions. The column was washed with two bed volumes of lysis buffer with 20 mM imidazole to eliminate unbound proteins (wash fraction). GO was eluted using the same buffer with 300 mM imidazole. Fraction containing purified GO was dialyzed against 300 ml of dialysis buffer (50 mM NaH2PO4, 300 mM NaCl, pH 7.5) at 4° C. in agitation overnight, and then kept at 4° C. in darkness. Protein were quantified by the bicinchoninic acid (BCA) assay.
Enzymatic assays. Enzymatic activity of hGO was determined in the presence of glycolate as substrate (40 mM glycolic acid) and phosphate buffer (50 mM KPO4, 0.1 mM EDTA, pH 7). The production of glyoxylate was indirectly measured by the quantification of hydrogen peroxide formed during the first oxidation reaction. […] Enzymatic activity was calculated at 1 minute after initiation of the Trinder reaction.
Regarding `O=C(O)c1nn[nH]c1Oc1ccc(Cl)c(F)c1` [Example 8, 5-(4-chloro-3-fluorophenoxy)-1H-1,2,3-triazole-4-carboxylic Acid], the IC50 was 100 to 200 nM.

Turning to `O=C(O)c1nn[nH]c1Oc1ccc(-c2ccc(Br)cc2)cc1` [Example 10, 5-((4′-bromo-[1,1′-biphenyl]-4-yl)oxy)-1H-1,2,3-triazole-4-carboxylic Acid], the IC50 was < 100 nM.

As for `N#Cc1cccc(-c2ccc(Oc3[nH]nnc3C(=O)O)cc2)c1` [Example 20, 5-((3′-cyano-[1,1′-biphenyl]-4-yl)oxy)-1H-1,2,3-triazole-4-carboxylic Acid], the IC50 was in the range of 100 to 200 nM. Still for that read-out and setting: under `COc1ccc(-c2ccc(Oc3[nH]nnc3C(=O)O)cc2)cc1` [Example 22, 5-((4′-methoxy-[1,1′-biphenyl]-4-yl)oxy)-1H-1,2,3-triazole-4-carboxylic Acid] stands 100 to 200 nM. Still for that read-out and setting: the figure for `Cc1ccc(-c2ccc(Oc3[nH]nnc3C(=O)O)cc2)cc1` [Example 31, 5-((4′-methyl-[1,1′-biphenyl]-4-yl)oxy)-1H-1,2,3-triazole-4-carboxylic Acid] is < 100 nM; for `O=C(O)c1nn[nH]c1Oc1ccc(Cl)cc1` [Example 36, 5-(4-chlorophenoxy)-1H-1,2,3-triazole-4-carboxylic Acid] it is < 100 nM.

Staying with this assay, now noted: recombinant hGO, 40 mM glycolic acid, pH 7, read at 515 nm, 1 minute after initiation of Trinder reaction; read-out: % Inhibition.
Regarding `O=C(O)c1nn[nH]c1Oc1ccc(N2CCOCC2)cc1` [Example 1, 5-(4-morpholinophenoxy)-1H-1,2,3-triazole-4-carboxylic Acid], the IC50 was > 200 nM. For the molecule `O=C(O)c1nn[nH]c1Oc1ccc(N2CCNCC2)cc1` [Example 2, 5-(4-(piperazin-1-yl)phenoxy)-1H-1,2,3-triazole-4-carboxylic Acid], the IC50 is < 100 nM. The same measure, in the same setting: the figure for `CC(=O)N1CCN(c2ccc(Oc3[nH]nnc3C(=O)O)cc2)CC1` [Example 3, 5-(4-(4-acetylpiperazin-1-yl)phenoxy)-1H-1,2,3-triazole-4-carboxylic Acid] is > 200 nM.

For the molecule `O=C(O)c1nn[nH]c1Oc1ccc(-n2cccn2)cc1` [Example 4, 5-(4-(1H-pyrazol-1-yl)phenoxy)-1H-1,2,3-triazole-4-carboxylic Acid], the IC50 was < 100 nM. Turning to `O=C(O)c1nn[nH]c1Oc1ccccc1Br` [Example 5, 5-(2-bromophenoxy)-1H-1,2,3-triazole-4-carboxylic Acid], the IC50 was > 200 nM. On the same count and under the same terms, under `O=C(O)c1nn[nH]c1Oc1ccc(Br)cc1` [Example 6, 5-(4-bromophenoxy)-1H-1,2,3-triazole-4-carboxylic Acid] stands < 100 nM; under `O=C(O)c1nn[nH]c1Oc1cccc(Br)c1` [Example 7, 5-(3-bromophenoxy)-1H-1,2,3-triazole-4-carboxylic Acid], 100 to 200 nM; under `O=C(O)c1nn[nH]c1Oc1ccc(F)cc1` [Example 9, 5-(4-fluorophenoxy)-1H-1,2,3-triazole-4-carboxylic Acid Sodium Salt], > 200 nM.

For the molecule `O=C(O)c1nn[nH]c1Oc1ccc(-c2cn[nH]c2)cc1` [Example 11, 5-(4-(1H-pyrazol-4-yl)phenoxy)-1H-1,2,3-triazole-4-carboxylic Acid], the IC50 is 100 to 200 nM.

With `O=C(O)c1nn[nH]c1Oc1ccc(-c2ccn[nH]2)cc1` [Example 12, 5-(4-(1H-pyrazol-5-yl)phenoxy)-1H-1,2,3-triazole-4-carboxylic Acid], the IC50 was < 100 nM. For `Cc1ncc(-c2ccc(Oc3[nH]nnc3C(=O)O)cc2)cn1` [Example 13, 5-(4-(2-methylpyrimidin-5-yl)phenoxy)-1H-1,2,3-triazole-4-carboxylic Acid], the IC50 was < 100 nM. The same measure, in the same setting: the figure for `O=C(O)c1nn[nH]c1Oc1ccc(-c2cccnc2)cc1` [Example 14, 5-(4-(pyridin-3-yl)phenoxy)-1H-1,2,3-triazole-4-carboxylic Acid] is 100 to 200 nM. For the molecule `O=C(O)c1nn[nH]c1Oc1ccc(-c2ccc(-c3ccncc3)cc2)cc1` [Example 15, 5-((4′-(pyridin-4-yl)-[1,1′-biphenyl]-4-yl)oxy)-1H-1,2,3-triazole-4-carboxylic Acid], the IC50 is < 100 nM.

Regarding `O=C(O)c1nn[nH]c1Oc1ccc(-c2ccc(-c3cccc(OC(F)F)c3)cc2)cc1` [Example 16, 5-((3″-(difluoromethoxy)-[1,1′:4′,1″-terphenyl]-4-yl)oxy)-1H-1,2,3-triazole-4-carboxylic Acid], the IC50 was < 100 nM. On the same count and under the same terms, under `O=C(O)c1nn[nH]c1Oc1ccc(-c2ccc(-c3ccc(OC(F)F)cc3)cc2)cc1` [Example 17, 5-((4″-(difluoromethoxy)-[1,1′:4′,1″-terphenyl]-4-yl)oxy)-1H-1,2,3-triazole-4-carboxylic Acid] stands > 200 nM; under `O=C(O)c1nn[nH]c1Oc1ccc(-c2cccnc2F)cc1` [Example 18, 5-(4-(2-fluoropyridin-3-yl)phenoxy)-1H-1,2,3-triazole-4-carboxylic Acid], < 100 nM.

For `O=C(O)c1nn[nH]c1Oc1ccc(-c2ccncc2)cc1` [Example 19, 5-(4-(pyridin-4-yl)phenoxy)-1H-1,2,3-triazole-4-carboxylic Acid], the IC50 was < 100 nM.

On to `O=C(O)c1nn[nH]c1Oc1ccc(-c2cnn(C3CCC3)c2)cc1` [Example 21, 5-(4-(1-cyclobutyl-1H-pyrazol-4-yl)phenoxy)-1H-1,2,3-triazole-4-carboxylic Acid], for which the IC50 is < 100 nM.

Take `O=C(O)c1nn[nH]c1Oc1ccc(-c2ccsc2)cc1` [Example 23, 5-(4-(thiophen-3-yl)phenoxy)-1H-1,2,3-triazole-4-carboxylic Acid]: the IC50 is < 100 nM. For `O=C(O)c1nn[nH]c1Oc1ccc(-c2nccs2)cc1` [Example 25, 5-(4-(thiazol-2-yl)phenoxy)-1H-1,2,3-triazole-4-carboxylic Acid], the IC50 lay in the range of 100 to 200 nM. `O=C(O)c1nn[nH]c1Oc1ccc(-c2ncco2)cc1` [Example 26, 5-(4-(oxazol-2-yl)phenoxy)-1H-1,2,3-triazole-4-carboxylic Acid]: the IC50 lay within 100 to 200 nM. As to `O=C(O)c1nn[nH]c1Oc1ccc(-c2ccc3nccn3c2)cc1` [Example 27, 5-(4-(imidazo[1,2-a]pyridin-6-yl)phenoxy)-1H-1,2,3-triazole-4-carboxylic Acid], the IC50 was in the range of 100 to 200 nM. Still for that read-out and setting: under `O=C(O)c1nn[nH]c1Oc1ccc(-c2ccccc2OC(F)F)cc1` [Example 28, 5-((2′-(difluoromethoxy)-[1,1′-biphenyl]-4-yl)oxy)-1H-1,2,3-triazole-4-carboxylic Acid] stands 100 to 200 nM.

On to `N#Cc1ccc(-c2ccc(Oc3nn[nH]c3C(=O)O)cc2)cc1` [Example 29, 5-((4′-cyano-[1,1′-biphenyl]-4-yl)oxy)-1H-1,2,3-triazole-4-carboxylic Acid], for which the IC50 was 100 to 200 nM.

As to `CC(C)c1ccc(-c2ccc(Oc3[nH]nnc3C(=O)O)cc2)cc1` [Example 32, 5-((4′-isopropyl-[1,1′-biphenyl]-4-yl)oxy)-1H-1,2,3-triazole-4-carboxylic Acid], the IC50 was < 100 nM.

With `O=C(O)c1nn[nH]c1Oc1ccc(-c2ccc(F)c(Cl)c2)cc1` [Example 33, 5-((3′-chloro-4′-fluoro-[1,1′-biphenyl]-4-yl)oxy)-1H-1,2,3-triazole-4-carboxylic Acid], the IC50 is < 100 nM. The same measure, in the same setting: the figure for `O=C(O)c1nn[nH]c1Oc1ccc(-c2cccc(F)c2F)cc1` [Example 34, 5-((2′,3′-difluoro-[1,1′-biphenyl]-4-yl)oxy)-1H-1,2,3-triazole-4-carboxylic Acid] is 100 to 200 nM; for `CC(C)(C)c1ccc(-c2ccc(Oc3[nH]nnc3C(=O)O)cc2)cc1` [Example 35, 5-((4′-(tert-butyl)-[1,1′-biphenyl]-4-yl)oxy)-1H-1,2,3-triazole-4-carboxylic Acid] it is 100 to 200 nM; for `O=C(O)c1nn[nH]c1Oc1ccc(-c2cnccn2)cc1` [Example 37, 5-(4-(pyrazin-2-yl)phenoxy)-1H-1,2,3-triazole-4-carboxylic Acid] it is < 100 nM.
